According to the supplement of paper PMC8372320:

Experiment: photocatalytic hydrogen evolution rate (per 5 mg catalyst); higher = more photocatalytic H2 evolution; extreme values may be limits of the assay
Details: catalyst mass (mg): 5; Pt cocatalyst (wt%): 3; sacrificial medium: triethylamine/methanol/water 1:1:1
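Note: aromatic molecules in triethylamine/methanol/water with Pt photoreduced in situ, irradiated 3 h under a 1 sun AM 1.5G solar simulator (350–1000 nm), H2 quantified by headspace gas chromatography; listed molecule itself used as the photocatalyst at 5 mg per vial.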

photocatalytic hydrogen evolution rate | Compound
0.201 µmol/h | O=C(O)c1ccc(-c2nc(-c3ccc(C(=O)O)cc3)nc(-c3ccc(C(=O)O)cc3)n2)cc1
0 µmol/h | Brc1ccc(Br)nc1
2.51 µmol/h | O=Cc1ccc2c(c1)c1ccccc1n2-c1ccccc1
0 µmol/h | NC(c1ccccc1)(c1ccccc1)c1ccccc1
0 µmol/h | Nc1cc(Br)c(F)cc1Br
0 µmol/h | Nc1c(F)c(F)c(N)c(F)c1F
0 µmol/h | c1ccc2c(c1)Cc1ccccc1-2
0 µmol/h | O=Cc1cc(O)c(O)c(O)c1
2.43 µmol/h | O=Cc1cccc(-c2ccccn2)c1
0.0679 µmol/h | Brc1ccc(C(c2ccc(Br)cc2)(c2ccc(Br)cc2)c2ccc(Br)cc2)cc1
0 µmol/h | Nc1ccc(-c2ccc(N)c(F)c2)cc1F
0 µmol/h | N#Cc1cccnc1-c1ncccc1C#N
0 µmol/h | N#Cc1cccnc1C#N
0.00607 µmol/h | CCOC(=O)c1cncc(C(=O)OCC)c1
0 µmol/h | FC(F)(F)c1cc(Br)ccc1Br
0 µmol/h | C#Cc1ccc(C#C)cc1
0.0124 µmol/h | CC1(C)OB(c2cc(B3OC(C)(C)C(C)(C)O3)cc(B3OC(C)(C)C(C)(C)O3)c2)OC1(C)C
0 µmol/h | C#Cc1ccc(C=O)cc1
0 µmol/h | c1csc(-c2ccc(N(c3ccc(-c4cccs4)cc3)c3ccc(-c4cccs4)cc3)cc2)c1
0.0511 µmol/h | Brc1ccc2c(c1)C1(c3cc(Br)ccc3-2)c2cc(Br)ccc2-c2ccc(Br)cc21
0 µmol/h | Brc1ccnc(-c2cc(Br)ccn2)c1
0.0133 µmol/h | Cc1cc(C#N)ccc1N
0.0617 µmol/h | N#Cc1ccc(C#N)nc1
1.18 µmol/h | O=Cc1ccc(-c2ccc(C=O)s2)s1
4.22 µmol/h | N#CCc1ccc(C=O)cc1

photocatalytic hydrogen evolution rate | Compound
3.44 µmol/h | Cc1ccc(C(=O)c2ccccc2)cc1
0 µmol/h | OB(O)c1cc(F)c(B(O)O)cc1F
0 µmol/h | C=Cc1ccc2c(=C(C#N)C#N)c3ccccc3c(=C(C#N)C#N)c2c1
0 µmol/h | c1cc(-c2nc(-c3ccncc3)nc(-c3ccncc3)n2)ccn1
0 µmol/h | c1ccc(Nc2cc(Nc3ccccc3)cc(Nc3ccccc3)c2)cc1
0 µmol/h | C=CS(=O)(=O)c1ccccc1
0.0076 µmol/h | Cc1cc(C=O)cc(C)c1O
0.101 µmol/h | OC1(c2ccccc2)c2cc(Br)ccc2-c2ccc(Br)cc21
0 µmol/h | N#Cc1cccc(Br)n1
0.0198 µmol/h | COC(=O)c1cc(C(=O)OC)cc(C(=O)OC)c1
0 µmol/h | Nc1nc2ccccc2[nH]1
23.9 µmol/h | O=C1OC2(c3ccccc31)c1cc(Br)c(O)c(Br)c1Oc1c2cc(Br)c(O)c1Br
0 µmol/h | O=Cc1c(O)cc(O)cc1O
0.491 µmol/h | O=Cc1ccccc1C=O
0 µmol/h | C(=C\c1ccccc1)/c1ccccc1
0 µmol/h | Cc1cc(C#N)ncc1Br
0.624 µmol/h | O=Cc1ccc(Br)cc1
0.000356 µmol/h | O=Cc1ccc(F)c(O)c1
3.67 µmol/h | CC(=O)c1ccc(-c2ccc(C(C)=O)cc2)cc1
1.84 µmol/h | O=C(O)c1ccc(-c2ccc(-c3ccc(C(=O)O)cc3)cc2)cc1
0 µmol/h | Ic1ccc(I)cc1
0.0434 µmol/h | CCOC(=O)c1cc(C(=O)OCC)cc(C(=O)OCC)c1
0 µmol/h | Brc1cnc(Br)c2nsnc12
0.401 µmol/h | N#Cc1cc2ccccc2cc1C#N

The next lines start with the compound.

Compound | photocatalytic hydrogen evolution rate
N#Cc1cc(F)cc(F)c1 | 0 µmol/h
O=C1c2cc3ccccc3cc2C(=O)c2cc3ccccc3cc21 | 6.86 µmol/h
Nc1ccc(Br)cc1 | 0 µmol/h
N#Cc1ccc(Br)cc1 | 0 µmol/h
O=Cc1cc(C=O)c(O)c(C=O)c1 | 10.9 µmol/h
CC1(C)CC2(CC(C)(C)c3cc(O)c(O)cc32)c2cc(O)c(O)cc21 | 0 µmol/h
COc1ccc2c3c(cccc13)C(=O)N(C)C2=O | 1.91 µmol/h
Cc1ccc(N(c2ccccc2)c2ccccc2)cc1 | 0 µmol/h
Brc1ccccc1-c1ccccc1Br | 0 µmol/h
N#Cc1cc(F)cc(C#N)c1 | 0 µmol/h
N#Cc1ccc(/C=C/c2ccc(/C=C/c3ccc(C#N)cc3)cc2)cc1 | 0.411 µmol/h
O=Cc1ccc(N(c2ccccc2)c2ccc(-c3ccc(N(c4ccccc4)c4ccc(C=O)cc4)cc3)cc2)cc1 | 0 µmol/h
Oc1cccc2cccnc12 | 0 µmol/h
O=C1CCc2ccccc21 | 0.101 µmol/h
Oc1c(F)c(F)c(O)c(F)c1F | 0 µmol/h
ClCc1c2ccccc2c(CCl)c2ccccc12 | 0 µmol/h
O=Cc1c2ccccc2c(C=O)c2ccccc12 | 2.97 µmol/h
Fc1c(F)c(F)c(-c2c(F)c(F)c(F)c(F)c2F)c(F)c1F | 0 µmol/h
O=C1C(F)=C(F)C(=O)C(F)=C1F | 0 µmol/h
Cc1cc(Br)cc(Br)c1 | 0 µmol/h
Brc1cncc(Br)c1 | 0 µmol/h

Compound | photocatalytic hydrogen evolution rate
C#Cc1cc(C(=O)O)cc(C(=O)O)c1 | 0 µmol/h
COC(=O)c1ccc(C#N)cc1 | 0 µmol/h
C1=Cc2cccc3cccc1c23 | 0 µmol/h
Nc1nc(N)nc(N)n1 | 0 µmol/h
O=Cc1cccc(-c2ccccc2)c1 | 3.14 µmol/h
Cc1cc(C)cc(-c2cc(C)cc(C)c2)c1 | 0 µmol/h
N#Cc1ccc(C=O)cc1F | 0.104 µmol/h
Cc1ccc(-c2ccc(C)cc2)cc1 | 0 µmol/h
Brc1cnc(Br)s1 | 0 µmol/h
COC(=O)c1ccnc(-c2cc(C(=O)OC)ccn2)c1 | 0 µmol/h
O=c1c(Br)c[nH]cc1Br | 0.000384 µmol/h
COc1cc(Br)c(OC)cc1Br | 0 µmol/h
N#Cc1cccc(C#N)c1 | 0 µmol/h
O=Cc1ccc(Br)cn1 | 0 µmol/h
BrCc1ccc(CBr)cc1 | 0 µmol/h
Cc1ccc(-c2ccc(C=O)cc2)cc1 | 3.39 µmol/h
O=Cc1ccc(O)c(O)c1O | 0 µmol/h
N#Cc1c(-n2c3ccccc3c3ccccc32)c(-n2c3ccccc3c3ccccc32)c(C#N)c(-n2c3ccccc3c3ccccc32)c1-n1c2ccccc2c2ccccc21 | 1.6 µmol/h
O=Cc1sc(C=O)c(Br)c1Br | 0.167 µmol/h
N#CCc1ccc(B(O)O)cc1 | 0 µmol/h
COC(OC)(C(=O)c1ccccc1)c1ccccc1 | 1.18 µmol/h
